In patent US12649750B2, “Macrocyclic compounds, compositions, and methods of using thereof” (Sionna Therapeutics Inc., priority 2022, dated 2026):

Columns and labels:
NBD1 = target: T1, NBD1 (Homo sapiens, UniProt P13569); assay: Aggregation analysis using differential static light scattering (DSLS), thermal stability of NBD1 (ΔTagg); type: binding; settings: ΔTagg versus DMSO control, NBD1 0.2 mg/ml
T1 construct: Purified recombinant NBD1 was produced using previously described methods; made in house
In short: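 NBD1 0.2 mg/ml, S200 buffer (50 mM Tris-HCl, 150 mM NaCl, 5 mM MgCl2, 2 mM ATP, 2 mM DTT, pH7.6) + 1% glycerol; cpd in DMSO; oil overlay. Ramp 25→70° C. at 1° C./min, DSLS images every 0.5° C. ΔTagg = Tagg (inflection) − mean DMSO Tagg.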

CFTR = target: T2, CFTR (Homo sapiens, UniProt P13569, DEL508-508); assay: TECC24 AUC fold over DMSO @10 μM, CFTR-mediated transepithelial chloride transport in CF-HBE cells; type: cell-based; settings: test agent AUC divided by DMSO vehicle AUC, primary CF-HBE cells, ΔF508 homozygous donor, 48 hours incubation
T2 construct: Primary human bronchial epithelial cells from a ΔF508 homozygous CF donor; host or cells: primary human bronchial epithelial cells (CF-HBE), ΔF508 homozygous donor
In short: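 Value is ratio of test-agent to DMSO AUC of equivalent transepithelial Cl− current, integrated from forskolin (10 μM) stimulation to CFTR inhibitor-172 (20 μM) block, with benzamil 10 μM present. CF-HBE (ΔF508/ΔF508) cultures had 48 h compound exposure at 10 μM, 36.5° C before recording.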

T1 sequence (P13569 423-646 limits assumed): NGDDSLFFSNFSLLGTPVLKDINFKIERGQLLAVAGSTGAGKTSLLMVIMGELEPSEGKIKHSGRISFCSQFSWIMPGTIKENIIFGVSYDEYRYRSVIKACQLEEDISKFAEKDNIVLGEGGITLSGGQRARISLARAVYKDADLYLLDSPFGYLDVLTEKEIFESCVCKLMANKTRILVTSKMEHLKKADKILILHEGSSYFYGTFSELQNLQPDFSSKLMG
T2 sequence (P13569 with tags, fused parts or gaps DEL508-508): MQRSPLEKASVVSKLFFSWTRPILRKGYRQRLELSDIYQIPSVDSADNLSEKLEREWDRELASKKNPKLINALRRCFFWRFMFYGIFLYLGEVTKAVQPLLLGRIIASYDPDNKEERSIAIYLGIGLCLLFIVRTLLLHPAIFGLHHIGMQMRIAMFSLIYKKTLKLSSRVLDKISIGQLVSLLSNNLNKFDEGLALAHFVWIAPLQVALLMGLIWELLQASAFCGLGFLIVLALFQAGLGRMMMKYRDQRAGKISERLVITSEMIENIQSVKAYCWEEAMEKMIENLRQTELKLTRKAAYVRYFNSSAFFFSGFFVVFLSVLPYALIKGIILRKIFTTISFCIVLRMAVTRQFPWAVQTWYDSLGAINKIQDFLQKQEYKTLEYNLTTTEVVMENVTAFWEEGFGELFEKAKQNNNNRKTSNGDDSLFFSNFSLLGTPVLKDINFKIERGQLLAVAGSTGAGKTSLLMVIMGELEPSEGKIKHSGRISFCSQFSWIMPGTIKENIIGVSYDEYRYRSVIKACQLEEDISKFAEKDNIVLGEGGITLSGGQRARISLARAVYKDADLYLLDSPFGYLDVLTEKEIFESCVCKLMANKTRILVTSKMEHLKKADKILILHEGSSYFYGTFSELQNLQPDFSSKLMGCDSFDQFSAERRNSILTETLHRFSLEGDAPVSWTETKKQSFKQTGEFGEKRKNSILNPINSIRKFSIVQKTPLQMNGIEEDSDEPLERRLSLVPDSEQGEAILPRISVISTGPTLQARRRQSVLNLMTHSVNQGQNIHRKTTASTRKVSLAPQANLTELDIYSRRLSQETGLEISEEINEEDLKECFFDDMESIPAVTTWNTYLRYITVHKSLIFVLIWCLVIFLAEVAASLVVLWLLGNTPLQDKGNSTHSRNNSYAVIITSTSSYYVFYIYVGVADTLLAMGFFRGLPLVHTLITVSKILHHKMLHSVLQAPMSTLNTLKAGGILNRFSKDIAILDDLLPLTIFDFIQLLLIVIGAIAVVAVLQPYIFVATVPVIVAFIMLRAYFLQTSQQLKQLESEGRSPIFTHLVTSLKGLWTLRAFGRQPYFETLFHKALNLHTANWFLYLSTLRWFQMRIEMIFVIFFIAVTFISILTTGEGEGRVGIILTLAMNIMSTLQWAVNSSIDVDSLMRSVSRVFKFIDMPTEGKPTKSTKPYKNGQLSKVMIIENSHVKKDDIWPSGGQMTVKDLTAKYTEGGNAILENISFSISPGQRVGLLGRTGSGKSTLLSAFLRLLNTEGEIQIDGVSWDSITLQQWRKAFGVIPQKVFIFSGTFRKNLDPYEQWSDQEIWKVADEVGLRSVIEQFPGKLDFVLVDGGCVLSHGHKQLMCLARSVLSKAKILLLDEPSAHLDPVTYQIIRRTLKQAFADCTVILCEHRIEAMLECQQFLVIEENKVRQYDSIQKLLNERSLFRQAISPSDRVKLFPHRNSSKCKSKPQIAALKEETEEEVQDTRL

Row | SMILES | DSLS 3D (100 μM ΔT) (NBD1) | TECC (AUC, 10 μM) (CFTR)
1 | Cn1nc2nc1-c1cc(ccc1F)Oc1c(F)cc3[nH]ccc3c1CCS(=O)(=O)CC(C)(C)CCCC2(C)c1cccc(CCO)c1 (single isomer, unassigned) [Compound 4B, 2-[3-(22,28-Difluoro-3,6,10,10-tetramethyl-12,12-dioxo-24-oxa-12λ^6-thia-3,4,19,30-tetrazapentacyclo[23.3.1.1^2,5.0^15,23.0^16,20]triaconta-1(29),2(30),4,15,17,20,22,25,27-nonaen-6-yl)phenyl]ethanol] | A (an ΔTagg value less than or equal to 5 °C is marked “A”) | A (a TECC value less than 12 is marked “A”)
2 | Cn1nc2nc1-c1cc(ccc1F)Oc1c(F)cc3[nH]ccc3c1CCS(=O)(=O)CC(C)(C)OCCC2(C)c1cccc(CC(=O)O)c1 (single isomer, unassigned) [Compound 5A, 2-[3-(22,28-Difluoro-3,6,10,10-tetramethyl-12,12-dioxo-9,24-dioxa-12λ^6-thia-3,4,19,30-tetrazapentacyclo[23.3.1.12,5.015,23.016,20]triaconta-1(29),2(30),4,15,17,20,22,25,27-nonaen-6-yl)phenyl]acetic Acid] | C (a value greater than 10 °C and less than or equal to 25 °C is marked “C”) | B (a value between 12-20 is marked “B”)
3 | Cn1nc2nc1-c1cc(ccc1F)Oc1c(F)cc3[nH]ccc3c1CCS(=O)(=O)CC(C)(C)OCCC2(C)c1cccc(CC(=O)O)c1 (single isomer, unassigned) [Compound 5B, 2-[3-(22,28-Difluoro-3,6,10,10-tetramethyl-12,12-dioxo-9,24-dioxa-12λ^6-thia-3,4,19,30-tetrazapentacyclo[23.3.1.12,5.015,23.016,20]triaconta-1(29),2(30),4,15,17,20,22,25,27-nonaen-6-yl)phenyl]acetic Acid] | B (a value above 5 °C and less than or equal to 10 °C is marked “B”) | B (a value between 12-20 is marked “B”)
4 | C[C@H](Cc1cccc(C2(C)CCCC(C)(C)CS(=O)(=O)CCc3c(c(F)cc4[nH]ccc34)Oc3ccc(F)c(c3)-c3nc2nn3C)c1)C(=O)O (single isomer, unassigned) [Compound 6A] | C (a value greater than 10 °C and less than or equal to 25 °C is marked “C”) | B (a value between 12-20 is marked “B”)
5 | C[C@H](Cc1cccc(C2(C)CCCC(C)(C)CS(=O)(=O)CCc3c(c(F)cc4[nH]ccc34)Oc3ccc(F)c(c3)-c3nc2nn3C)c1)C(=O)O (single isomer, unassigned) [Compound 6B] | A (an ΔTagg value less than or equal to 5 °C is marked “A”) | C (a value between 20 and 80 is marked “C”)
6 | C[C@@H](Cc1cccc([C@@]2(C)CCCC(C)(C)CS(=O)(=O)CCc3c(c(F)cc4[nH]ccc34)Oc3ccc(F)c(c3)-c3nc2nn3C)c1)C(=O)O (single isomer, unassigned) [Compound 7] | C (a value greater than 10 °C and less than or equal to 25 °C is marked “C”) | B (a value between 12-20 is marked “B”)
7 | [2H]C([2H])([2H])C1(c2cccc(CC(C)C(=O)O)c2)COCC(C)(C)CS(=O)(=O)CCc2c(c(F)cc3[nH]ccc23)Oc2ccc(F)c(c2)-c2nc1nn2C (single isomer, unassigned) [Compound 8A, 3-[3-[22,28-difluoro-3,10,10-trimethyl-12,12-dioxo-6-(trideuteriomethyl)-8,24-dioxa-12lambda6-thia-3,4,19,30-tetrazapentacyclo[23.3.1.12,5.015,23.016,20]triaconta-1(29),2(30),4,15,17,20,22,25,27-nonaen-6-yl]phenyl]-2-methyl-propanoic acid] | C (a value greater than 10 °C and less than or equal to 25 °C is marked “C”) | B (a value between 12-20 is marked “B”)
8 | [2H]C([2H])([2H])C1(c2cccc(CC(C)C(=O)O)c2)COCC(C)(C)CS(=O)(=O)CCc2c(c(F)cc3[nH]ccc23)Oc2ccc(F)c(c2)-c2nc1nn2C (single isomer, unassigned) [Compound 8B, 3-[3-[22,28-difluoro-3,10,10-trimethyl-12,12-dioxo-6-(trideuteriomethyl)-8,24-dioxa-12lambda6-thia-3,4,19,30-tetrazapentacyclo[23.3.1.12,5.015,23.016,20]triaconta-1(29),2(30),4,15,17,20,22,25,27-nonaen-6-yl]phenyl]-2-methyl-propanoic Acid] | A (an ΔTagg value less than or equal to 5 °C is marked “A”) | A (a TECC value less than 12 is marked “A”)
9 | [2H]C([2H])([2H])C1(c2cccc(CC(C)C(=O)O)c2)CCCC(C([2H])([2H])[2H])(C([2H])([2H])[2H])CS(=O)(=O)CCc2c(c(F)cc3[nH]ccc23)Oc2ccc(F)c(c2)-c2nc1nn2C (single isomer, unassigned) [Compound 9A, 3-[3-[22,28-difluoro-3-methyl-12,12-dioxo-6,10,10-tris(trideuteriomethyl)-24-oxa-12lambda6-thia-3,4,19,30-tetrazapentacyclo[23.3.1.12,5.015,23.016,20]triaconta-1(29),2(30),4,15,17,20,22,25,27-nonaen-6-yl]phenyl]-2-methyl-propanoic Acid] | C (a value greater than 10 °C and less than or equal to 25 °C is marked “C”) | A (a TECC value less than 12 is marked “A”)
10 | [2H]C([2H])([2H])C1(c2cccc(CC(C)C(=O)O)c2)CCCC(C([2H])([2H])[2H])(C([2H])([2H])[2H])CS(=O)(=O)CCc2c(c(F)cc3[nH]ccc23)Oc2ccc(F)c(c2)-c2nc1nn2C (single isomer, unassigned) [Compound 9B, 3-[3-[22,28-difluoro-3-methyl-12,12-dioxo-6,10,10-tris(trideuteriomethyl)-24-oxa-12lambda6-thia-3,4,19,30-tetrazapentacyclo[23.3.1.12,5.015,23.016,20]triaconta-1(29),2(30),4,15,17,20,22,25,27-nonaen-6-yl]phenyl]-2-methyl-propanoic Acid] | A (an ΔTagg value less than or equal to 5 °C is marked “A”) | A (a TECC value less than 12 is marked “A”)
11 | [2H]C([2H])([2H])C1(c2cccc(CC(C)C(=O)O)c2)CCCC(C)(C)CS(=O)(=O)CCc2c(c(F)cc3[nH]ccc23)Oc2ccc(F)c(c2)-c2nc1nn2C (single isomer, unassigned) [Compound 10A, 3-[3-[22,28-difluoro-3,10,10-trimethyl-12,12-dioxo-6-(trideuteriomethyl)-24-oxa-12lambda6-thia-3,4,19,30-tetrazapentacyclo[23.3.1.12,5.015,23.016,20]triaconta-1(29),2(30),4,15,17,20,22,25,27-nonaen-6-yl]phenyl]-2-methyl-propanoic Acid] | C (a value greater than 10 °C and less than or equal to 25 °C is marked “C”) | A (a TECC value less than 12 is marked “A”)
